# Source: patent publication US8317912B2, “Wet state preservation of mineral slurries” (Arch Chemicals, Inc., priority 2011, dated 2012)
# Tested on: contaminated slurry
# Assay: Wet state preservation challenge test: dosed calcium carbonate slurry inoculated repeatedly with contaminated slurry, streaked on nutrient agar, examined for viable colonies; on growth of viable colonies on nutrient agar: key: − = no growth (no visible colonies); <10 = very light growth; + = light growth; ++ = moderate growth; +++ = heavy growth
# Format: cell-based, bacteria
# Parameters: viable colonies on nutrient agar: unit not given here
# Conditions: for test outcome in place of 3rd inoculation: surfactant 0.1, 0.05, 0.025 and 0.01%, test completed after 2nd inoculation; for efficacy in preserving contaminated slurry (summary of Tables 4-8): between 0.03% and 0.09% of biocide A plus the surfactant, compared to biocide A and the surfactant used alone; for growth of viable colonies on nutrient agar: Biocide A 0 %
# Method: In this example, a calcium carbonate-containing aqueous slurry was sterilized to eradicate bacterial contamination by weighing out 40 g aliquots into 60 g glass bottles and autoclaving the aliquots for 20 minutes at 120° C. A series of samples were prepared by taking the 40 g aliquots of the sterilized slurry and dosing with 0.136, 0.091, 0.046, 0.023, 0.011, and 0% of a biocide composition (“Biocide A”) shown in Table 1 plus 0, 0.01, 0.025, 0.05, and 0.1% of a surfactant as shown in Table 2. All samples were allowed to stand for 24 hours to equilibrate.
# After equilibration, each test sample was inoculated with 0.8 g of a contaminated slurry, the bacteria count of which is shown in Table 3. The samples were incubated at 30° C. After a contact time of 6 hours, 1, 2, 3, or 4 days, a small aliquot of each sample was streaked across the surface of nutrient agar, incubated at 30° C. for 48 hours and the surface was examined for viable colonies. The inoculation and assessment procedures were repeated at 3 or 4 day intervals for a period of 3 inoculations.
# [1] = Biocide A 0.091%, surfactant 0.05%, 1st inoculation, 1 day
# [2] = surfactant 0.01 %, 1st inoculation, 0.2 days
# [3] = surfactant 0.01 %, 1st inoculation, 1 day
# [4] = surfactant 0.01 %, 1st inoculation, 2 days
# [5] = surfactant 0.01 %, 1st inoculation, 3 days
# [6] = surfactant 0.025 %, 1st inoculation, 0.2 days
# [7] = surfactant 0.025 %, 1st inoculation, 1 day
# [8] = surfactant 0.025 %, 1st inoculation, 2 days
# [9] = surfactant 0.025 %, 1st inoculation, 3 days
# [10] = surfactant 0.05 %, 1st inoculation, 0.2 days
# [11] = surfactant 0.05 %, 1st inoculation, 1 day
# [12] = surfactant 0.05 %, 1st inoculation, 2 days
# [13] = surfactant 0.05 %, 1st inoculation, 3 days
# [14] = surfactant 0.1 %, 1st inoculation, 0.2 days
# [15] = surfactant 0.1 %, 1st inoculation, 1 day
# [16] = surfactant 0.1 %, 1st inoculation, 2 days
# [17] = surfactant 0.1 %, 1st inoculation, 3 days
# [18] = Biocide A 0.091%, surfactant 0.01%, 1st inoculation, 0.2 days
# [19] = Biocide A 0.136%, surfactant 0.025%, 3rd inoculation, 1 day
# [20] = Biocide A 0.136%, surfactant 0.05%, 3rd inoculation, 1 day
Compound,test outcome in place of 3rd inoculation (Biocide A 0.023%),viable colonies on nutrient agar [1],efficacy in preserving contaminated slurry (summary of Tables 4-8),growth of viable colonies on nutrient agar [2],growth of viable colonies on nutrient agar [3],growth of viable colonies on nutrient agar [4],growth of viable colonies on nutrient agar [5],growth of viable colonies on nutrient agar [6],growth of viable colonies on nutrient agar [7],growth of viable colonies on nutrient agar [8],growth of viable colonies on nutrient agar [9],growth of viable colonies on nutrient agar [10],growth of viable colonies on nutrient agar [11],growth of viable colonies on nutrient agar [12],growth of viable colonies on nutrient agar [13],growth of viable colonies on nutrient agar [14],growth of viable colonies on nutrient agar [15],growth of viable colonies on nutrient agar [16],growth of viable colonies on nutrient agar [17],viable colonies on nutrient agar [18],other results
"CCCCC(CC)COC(=O)CC(C(=O)OCC(CC)CCCC)S(=O)(=O)[O-].[Na+] (centres unmarked) [Aerosol ® OT, Sodium dioctyl suphosuccinate]",SAMPLES FAILED,<10,improved efficacy,+++,+++,+++,+++,+++,+++,+++,+++,+++,+++,+++,+++,+++,+++,+++,+++,–,"viable colonies on nutrient agar (Biocide A 0.091%, surfactant 0.01%, 1st inoculation, 1 day): <10; viable colonies on nutrient agar (Biocide A 0.136%, surfactant 0.025%, 1st inoculation, 1 day): <10"
CCCCCCCCCCCCc1ccc(S(=O)(=O)O)cc1 [Dodecyl benzene sulfonic acid],SAMPLES FAILED,–,improved efficacy,+++,+++,+++,+++,+++,+++,+++,+++,+++,+++,+++,+++,+++,+++,+++,+++,<10,"viable colonies on nutrient agar (Biocide A 0.023%, surfactant 0.01%, 1st inoculation, 2 days): <10; viable colonies on nutrient agar (Biocide A 0.023%, surfactant 0.05%, 1st inoculation, 2 days): <10; viable colonies on nutrient agar (Biocide A 0.023%, surfactant 0.05%, 1st inoculation, 3 days): <10; viable colonies on nutrient agar (Biocide A 0.023%, surfactant 0.1%, 1st inoculation, 2 days): <10; viable colonies on nutrient agar (Biocide A 0.023%, surfactant 0.1%, 1st inoculation, 3 days): <10; viable colonies on nutrient agar (Biocide A 0.046%, surfactant 0.025%, 3rd inoculation, 2 days): <10; viable colonies on nutrient agar (Biocide A 0.046%, surfactant 0.05%, 3rd inoculation, 2 days): <10; viable colonies on nutrient agar (Biocide A 0.046%, surfactant 0.1%, 3rd inoculation, 2 days): <10; viable colonies on nutrient agar (Biocide A 0.091%, surfactant 0.01%, 3rd inoculation, 1 day): <10; viable colonies on nutrient agar (Biocide A 0.091%, surfactant 0.05%, 1st inoculation, 0.2 days): <10; viable colonies on nutrient agar (Biocide A 0.091%, surfactant 0.1%, 3rd inoculation, 1 day): <10; viable colonies on nutrient agar (Biocide A 0.136%, surfactant 0.01%, 3rd inoculation, 1 day): <10; viable colonies on nutrient agar [19]: <10; viable colonies on nutrient agar [20]: <10"
CCCCC(CC)CN(CCC(=O)[O-])CCC(=O)[O-].[Na+].[Na+] (centres unmarked) [Lakeland AMA LF70 ™],SAMPLES FAILED,<10,–,–,–,–,–,–,–,–,–,–,–,–,–,–,–,–,–,<10,"viable colonies on nutrient agar (Biocide A 0.046%, surfactant 0.01%, 1st inoculation, 2 days): <10; viable colonies on nutrient agar (Biocide A 0.046%, surfactant 0.1%, 1st inoculation, 2 days): <10; viable colonies on nutrient agar (Biocide A 0.091%, surfactant 0.01%, 3rd inoculation, 2 days): <10; viable colonies on nutrient agar (Biocide A 0.091%, surfactant 0.025%, 1st inoculation, 3 days): <10; viable colonies on nutrient agar (Biocide A 0.091%, surfactant 0.05%, 1st inoculation, 3 days): <10; viable colonies on nutrient agar (Biocide A 0.091%, surfactant 0.05%, 3rd inoculation, 2 days): <10; viable colonies on nutrient agar (Biocide A 0.091%, surfactant 0.1%, 1st inoculation, 3 days): <10; viable colonies on nutrient agar (Biocide A 0.091%, surfactant 0.1%, 3rd inoculation, 2 days): <10; viable colonies on nutrient agar (Biocide A 0.136%, surfactant 0.01%, 1st inoculation, 3 days): <10; viable colonies on nutrient agar [19]: <10; viable colonies on nutrient agar (Biocide A 0.136%, surfactant 0.05%, 1st inoculation, 1 day): <10; viable colonies on nutrient agar (Biocide A 0.136%, surfactant 0.05%, 1st inoculation, 3 days): <10; viable colonies on nutrient agar [20]: <10; viable colonies on nutrient agar (Biocide A 0.136%, surfactant 0.1%, 1st inoculation, 1 day): <10; viable colonies on nutrient agar (Biocide A 0.136%, surfactant 0.1%, 1st inoculation, 3 days): <10"
"CCCCCCCCCCCCOS(=O)(=O)[O-].[Na+] [SDS, Sodium dodecyl sulfate]",–,–,improved efficacy,+++,+++,+++,+++,+++,+++,+++,+++,+++,+++,+++,+++,+++,+++,+++,+++,–,"viable colonies on nutrient agar (Biocide A 0.023%, surfactant 0.01%, 1st inoculation, 3 days): <10; viable colonies on nutrient agar (Biocide A 0.023%, surfactant 0.025%, 1st inoculation, 1 day): <10; viable colonies on nutrient agar (Biocide A 0.046%, surfactant 0.01%, 1st inoculation, 1 day): <10; viable colonies on nutrient agar (Biocide A 0.046%, surfactant 0.01%, 3rd inoculation, 3 days): <10; viable colonies on nutrient agar (Biocide A 0.046%, surfactant 0.05%, 1st inoculation, 0.2 days): <10; viable colonies on nutrient agar (Biocide A 0.046%, surfactant 0.05%, 2nd inoculation, 1 day): <10; viable colonies on nutrient agar (Biocide A 0.046%, surfactant 0.1%, 1st inoculation, 0.2 days): <10; viable colonies on nutrient agar (Biocide A 0.046%, surfactant 0.1%, 2nd inoculation, 1 day): <10; viable colonies on nutrient agar (Biocide A 0.091%, surfactant 0.025%, 3rd inoculation, 0.2 days): <10"
